Data: patent US20140213513A1 (Sanofi, priority 2012, published 2014)
*1 amine or outer side, *2 acyl side, *3 side chain or, on linkers, in order; H or OH if unused. Where a SMILES comes first, the peptide text is derived from it. Side-chain parts run from the residue outwards. [ ]: non-standard residue; d: D form. The star is where a group is joined. γGlu = O=C(O)[C@H](CCC(=O)[*:2])N[*:1]; Stearoyl = CCCCCCCCCCCCCCCCCC(=O)*; Palmitoyl = CCCCCCCCCCCCCCCC(=O)*; Aib = CC(C)(N)C(=O)O

Legend:
Type in all cases: cell-based
Settings in all cases: Table 7; cAMP formation
[1] = target: T1, human glucagon receptor (hGLUC R) (Homo sapiens, UniProt P47871); test: cAMP response of HEK-293 cells stably expressing human glucagon receptor (HTRF)
T1 construct: expressed in transfected cells
T1 sequence (P47871 26-477): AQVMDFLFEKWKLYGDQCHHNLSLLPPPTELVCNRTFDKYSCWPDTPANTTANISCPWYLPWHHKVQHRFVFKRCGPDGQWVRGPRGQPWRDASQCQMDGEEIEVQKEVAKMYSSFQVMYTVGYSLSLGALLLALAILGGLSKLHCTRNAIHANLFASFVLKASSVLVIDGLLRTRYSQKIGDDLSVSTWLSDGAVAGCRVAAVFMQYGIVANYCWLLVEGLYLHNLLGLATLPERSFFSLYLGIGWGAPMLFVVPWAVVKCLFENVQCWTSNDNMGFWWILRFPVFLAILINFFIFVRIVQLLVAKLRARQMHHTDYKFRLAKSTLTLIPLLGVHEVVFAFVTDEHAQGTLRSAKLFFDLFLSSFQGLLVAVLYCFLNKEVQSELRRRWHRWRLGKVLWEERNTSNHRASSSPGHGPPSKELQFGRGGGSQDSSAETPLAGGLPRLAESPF
Summary of the method: (§1)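 HEK-293 cells stably expressing the receptor were resuspended at 400000 cells/ml in HBSS/20 mM HEPES/0.1% BSA buffer with 2 mM IBMX. Cells were stimulated with compound for 30 min at room temperature. Intracellular cAMP was measured by HTRF.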

[2] = target: T2, human GIP receptor (hGIP R) (Homo sapiens, UniProt P48546); test: cAMP response of HEK-293 cells stably expressing human GIP receptor (HTRF)
T2 construct: expressed in transfected cells
T2 sequence (P48546 22-466): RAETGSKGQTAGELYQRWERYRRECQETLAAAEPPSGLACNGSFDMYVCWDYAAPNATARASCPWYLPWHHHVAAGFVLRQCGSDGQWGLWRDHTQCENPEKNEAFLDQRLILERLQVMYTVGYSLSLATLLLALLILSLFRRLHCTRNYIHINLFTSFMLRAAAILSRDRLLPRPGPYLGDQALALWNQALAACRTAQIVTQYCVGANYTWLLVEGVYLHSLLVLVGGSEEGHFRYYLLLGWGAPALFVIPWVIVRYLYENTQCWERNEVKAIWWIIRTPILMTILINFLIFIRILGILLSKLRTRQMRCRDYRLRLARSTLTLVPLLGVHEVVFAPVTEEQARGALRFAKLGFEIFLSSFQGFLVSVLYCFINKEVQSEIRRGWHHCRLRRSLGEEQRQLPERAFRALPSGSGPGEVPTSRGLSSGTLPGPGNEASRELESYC
Summary of the method: as §1

[3] = target: T3, human GLP-1 receptor (hGLP-1 R) (Homo sapiens, UniProt P43220); test: cAMP response of HEK-293 cells stably expressing human GLP-1 receptor (HTRF)
T3 construct: expressed in transfected cells
T3 sequence (P43220 24-463): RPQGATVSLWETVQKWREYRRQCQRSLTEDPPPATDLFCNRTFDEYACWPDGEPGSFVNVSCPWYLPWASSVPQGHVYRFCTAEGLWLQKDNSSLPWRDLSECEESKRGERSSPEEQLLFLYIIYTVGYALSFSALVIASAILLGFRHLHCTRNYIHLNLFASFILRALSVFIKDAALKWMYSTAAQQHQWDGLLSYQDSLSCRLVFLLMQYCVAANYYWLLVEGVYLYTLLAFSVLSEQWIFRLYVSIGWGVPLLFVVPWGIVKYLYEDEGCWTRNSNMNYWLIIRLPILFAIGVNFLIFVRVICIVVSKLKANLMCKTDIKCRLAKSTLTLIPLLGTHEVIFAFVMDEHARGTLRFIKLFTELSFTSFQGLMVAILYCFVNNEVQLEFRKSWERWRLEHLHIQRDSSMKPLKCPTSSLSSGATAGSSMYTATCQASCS
Summary of the method: as §1

Compound | EC50 [1] [pM] | EC50 [2] [pM] | EC50 [3] [pM]
CCCCCCCCCCCCCCCC(=O)N[C@@H](CCC(=O)NCCCC[C@H](NC(=O)[C@H](CCC(N)=O)NC(=O)[C@@H](NC(=O)[C@H](CO)NC(=O)[C@H](CC(C)C)NC(=O)[C@H](CC(=O)O)NC(=O)[C@H](CO)NC(=O)[C@@H](NC(=O)[C@H](Cc1ccccc1)NC(=O)[C@@H](NC(=O)CNC(=O)[C@H](CCC(=O)O)NC(=O)C(C)(C)NC(=O)[C@@H](N)Cc1ccc(O)cc1)[C@@H](C)O)[C@@H](C)O)[C@@H](C)CC)C(=O)N[C@@H](CCC(=O)O)C(=O)N[C@@H](CCC(=O)O)C(=O)N[C@@H](CCCNC(=N)N)C(=O)N[C@@H](C)C(=O)N[C@@H](C)C(=O)N[C@@H](Cc1c[nH]cn1)C(=O)N[C@@H](CCC(=O)O)C(=O)N[C@@H](Cc1ccccc1)C(=O)N[C@H](C(=O)N[C@@H](CCC(=O)O)C(=O)N[C@@H](Cc1c[nH]c2ccccc12)C(=O)N[C@@H](CC(C)C)C(=O)N[C@@H](CCCCN)C(=O)N[C@@H](CCCNC(=N)N)C(=O)NC(C)(C)C(=O)NCC(=O)N1CCC[C@H]1C(=O)N[C@@H](CO)C(=O)N[C@@H](CO)C(=O)NCC(=O)N[C@@H](C)C(=O)N1CCC[C@H]1C(=O)N1CCC[C@H]1C(=O)N1CCC[C@H]1C(=O)N[C@@H](CO)C(=O)N[C@@H](CCCCN)C(N)=O)[C@@H](C)CC)C(=O)O [SEQ ID NO: 57, Y-Aib-E-G-T-F-T-S-D-L-S-I-Q-K(yE-x53)-E-E-R-A-A-H-E-F-I-E-W-L-K-R-Aib-G-P-S-S-G-A-P-P-P-S-K-NH2] | 14400 | 15.7 | 7.1
CCCCCCCCCCCCCCCC(=O)N[C@@H](CCC(=O)NCCCC[C@H](NC(=O)[C@H](CCC(N)=O)NC(=O)[C@H](CCCCN)NC(=O)[C@H](CO)NC(=O)[C@H](CC(C)C)NC(=O)[C@H](CC(=O)O)NC(=O)[C@H](CO)NC(=O)[C@@H](NC(=O)[C@H](Cc1ccccc1)NC(=O)[C@@H](NC(=O)CNC(=O)[C@H](CCC(N)=O)NC(=O)C(C)(C)NC(=O)[C@@H](N)Cc1ccc(O)cc1)[C@@H](C)O)[C@@H](C)O)C(=O)N[C@@H](CC(=O)O)C(=O)N[C@@H](CO)C(=O)N[C@@H](CCCCN)C(=O)N[C@@H](C)C(=O)N[C@@H](C)C(=O)N[C@@H](CCC(N)=O)C(=O)N[C@@H](CC(=O)O)C(=O)N[C@@H](Cc1ccccc1)C(=O)N[C@H](C(=O)N[C@@H](CCC(=O)O)C(=O)N[C@@H](Cc1c[nH]c2ccccc12)C(=O)N[C@@H](CC(C)C)C(=O)N[C@@H](CCCCN)C(=O)N[C@@H](C)C(=O)NCC(=O)NCC(=O)N1CCC[C@H]1C(=O)N[C@@H](CO)C(=O)N[C@@H](CO)C(=O)NCC(=O)N[C@@H](C)C(=O)N1CCC[C@H]1C(=O)N1CCC[C@H]1C(=O)N1CCC[C@H]1C(=O)N[C@@H](CO)C(N)=O)[C@@H](C)CC)C(=O)O [SEQ ID NO: 61, Y-Aib-Q-G-T-F-T-S-D-L-S-K-Q-K(yE-x53)-DSKAAQDFIEWLKAGGPSSGAPPPS-NH2] (H-Y[Aib]QGTFTSDLSKQK([γGlu-Palmitoyl])DSKAAQDFIEWLKAGGPSSGAPPPS-NH2) | 6.1 | 21.4 | 2.4
CCCCCCCCCCCCCCCC(=O)N[C@@H](CCC(=O)NCCCC[C@H](NC(=O)[C@H](CCC(N)=O)NC(=O)[C@H](CCCCN)NC(=O)[C@H](CO)NC(=O)[C@H](CC(C)C)NC(=O)[C@H](CC(=O)O)NC(=O)[C@H](CO)NC(=O)[C@@H](NC(=O)[C@H](Cc1ccccc1)NC(=O)[C@@H](NC(=O)CNC(=O)[C@H](Cc1c[nH]cn1)NC(=O)C(C)(C)NC(=O)[C@@H](N)Cc1ccc(O)cc1)[C@@H](C)O)[C@@H](C)O)C(=O)N[C@@H](CCC(=O)O)C(=O)N[C@@H](CCCCN)C(=O)N[C@@H](CCCNC(=N)N)C(=O)N[C@@H](C)C(=O)N[C@@H](C)C(=O)NC(C)(C)C(=O)N[C@@H](CCC(=O)O)C(=O)N[C@@H](Cc1ccccc1)C(=O)N[C@H](C(=O)N[C@@H](CCC(=O)O)C(=O)N[C@@H](Cc1c[nH]c2ccccc12)C(=O)N[C@@H](CC(C)C)C(=O)N[C@@H](CCCCN)C(=O)N[C@@H](CC(N)=O)C(=O)N[C@H](C(=O)NCC(=O)N1CCC[C@H]1C(=O)N[C@@H](CO)C(=O)N[C@@H](CO)C(=O)NCC(=O)N[C@@H](C)C(=O)N1CCC[C@H]1C(=O)N1CCC[C@H]1C(=O)N1CCC[C@H]1C(=O)N[C@@H](CO)C(N)=O)[C@@H](C)O)[C@@H](C)CC)C(=O)O [SEQ ID NO: 28, Y-Aib-H-G-T-F-T-S-D-L-S-K-Q-K(yE-x53)-E-K-R-A-A-Aib-E-F-I-E-W-L-K-N-T-G-P-S-S-G-A-P-P-P-S-NH2] (H-Y[Aib]HGTFTSDLSKQK([γGlu-Palmitoyl])EKRAA[Aib]EFIEWLKNTGPSSGAPPPS-NH2) | 4.8 | 36.8 | 58.3
CCCCCCCCCCCCCCCC(=O)N[C@@H](CCC(=O)NCCCC[C@H](NC(=O)[C@H](CCC(N)=O)NC(=O)[C@H](CCCCN)NC(=O)[C@H](CO)NC(=O)[C@H](CC(C)C)NC(=O)[C@H](CC(=O)O)NC(=O)[C@H](CO)NC(=O)[C@@H](NC(=O)[C@H](Cc1ccccc1)NC(=O)[C@@H](NC(=O)CNC(=O)[C@H](CCC(=O)O)NC(=O)C(C)(C)NC(=O)[C@@H](N)Cc1ccc(O)cc1)[C@@H](C)O)[C@@H](C)O)C(=O)N[C@@H](CC(=O)O)C(=O)N[C@@H](CCCCN)C(=O)N[C@@H](CCCNC(=N)N)C(=O)N[C@@H](C)C(=O)N[C@@H](C)C(=O)N[C@@H](CCC(N)=O)C(=O)N[C@@H](CC(=O)O)C(=O)N[C@@H](Cc1ccccc1)C(=O)N[C@H](C(=O)N[C@@H](CCC(=O)O)C(=O)N[C@@H](Cc1c[nH]c2ccccc12)C(=O)N[C@@H](CC(C)C)C(=O)N[C@@H](CCCCN)C(=O)N[C@@H](C)C(=O)NCC(=O)NCC(=O)N1CCC[C@H]1C(=O)N[C@@H](CO)C(=O)N[C@@H](CO)C(=O)NCC(=O)N[C@@H](C)C(=O)N1CCC[C@H]1C(=O)N1CCC[C@H]1C(=O)N1CCC[C@H]1C(=O)N[C@@H](CO)C(N)=O)[C@@H](C)CC)C(=O)O [SEQ ID NO: 63, Y-Aib-E-G-T-F-T-S-D-L-S-K-Q-K(yE-x53)-DKRAAQDFIEWLKAGGPSSGAPPPS-NH2] (H-Y[Aib]EGTFTSDLSKQK([γGlu-Palmitoyl])DKRAAQDFIEWLKAGGPSSGAPPPS-NH2) | 1670 | 11.9 | 6
CCCCCCCCCCCCCCCC(=O)N[C@@H](CCC(=O)NCCCC[C@H](NC(=O)[C@H](CCC(N)=O)NC(=O)[C@@H](NC(=O)[C@H](CO)NC(=O)[C@H](CC(C)C)NC(=O)[C@H](CC(=O)O)NC(=O)[C@H](CO)NC(=O)[C@@H](NC(=O)[C@H](Cc1ccccc1)NC(=O)[C@@H](NC(=O)CNC(=O)[C@H](CCC(N)=O)NC(=O)C(C)(C)NC(=O)[C@@H](N)Cc1ccc(O)cc1)[C@@H](C)O)[C@@H](C)O)[C@@H](C)CC)C(=O)N[C@@H](CCC(=O)O)C(=O)N[C@@H](CCCCN)C(=O)N[C@@H](CCCNC(=N)N)C(=O)NC(C)(C)C(=O)N[C@@H](C)C(=O)NC(C)(C)C(=O)N[C@@H](CCC(=O)O)C(=O)N[C@@H](Cc1ccccc1)C(=O)N[C@H](C(=O)N[C@@H](CCC(=O)O)C(=O)N[C@@H](Cc1c[nH]c2ccccc12)C(=O)N[C@@H](CC(C)C)C(=O)N[C@@H](CCCCN)C(=O)N[C@@H](CC(N)=O)C(=O)N[C@H](C(=O)NCC(=O)N1CCC[C@H]1C(=O)N[C@@H](CO)C(=O)N[C@@H](CO)C(=O)NCC(=O)N[C@@H](C)C(=O)N1CCC[C@H]1C(=O)N1CCC[C@H]1C(=O)N1CCC[C@H]1C(=O)N[C@@H](CO)C(N)=O)[C@@H](C)O)[C@@H](C)CC)C(=O)O [SEQ ID NO: 11, Y-Aib-Q-G-T-F-T-S-D-L-S-I-Q-K(yE-x53)-E-K-R-Aib-A-Aib-E-F-I-E-W-L-K-N-T-G-P-S-S-G-A-P-P-P-S-NH2] (H-Y[Aib]QGTFTSDLSIQK([γGlu-Palmitoyl])EKR[Aib]A[Aib]EFIEWLKNTGPSSGAPPPS-NH2) | 66.9 | 14.4 | 3.8
CCCCCCCCCCCCCCCCCC(=O)N[C@@H](CCC(=O)NCCCC[C@H](NC(=O)[C@H](CCC(N)=O)NC(=O)[C@H](CCCCN)NC(=O)[C@H](CO)NC(=O)[C@H](CC(C)C)NC(=O)[C@H](CC(=O)O)NC(=O)[C@H](CO)NC(=O)[C@@H](NC(=O)[C@H](Cc1ccccc1)NC(=O)[C@@H](NC(=O)CNC(=O)[C@H](CCC(N)=O)NC(=O)C(C)(C)NC(=O)[C@@H](N)Cc1ccc(O)cc1)[C@@H](C)O)[C@@H](C)O)C(=O)N[C@@H](CC(=O)O)C(=O)N[C@@H](CCC(=O)O)C(=O)N[C@@H](CCC(=O)O)C(=O)N[C@@H](C)C(=O)N[C@@H](C)C(=O)N[C@@H](CCCNC(=N)N)C(=O)N[C@@H](CC(C)C)C(=O)N[C@@H](Cc1ccccc1)C(=O)N[C@H](C(=O)N[C@@H](CCC(=O)O)C(=O)N[C@@H](Cc1c[nH]c2ccccc12)C(=O)N[C@@H](CC(C)C)C(=O)N[C@@H](CCCCN)C(=O)N[C@@H](C)C(=O)NCC(=O)NCC(=O)N1CCC[C@H]1C(=O)N[C@@H](CO)C(=O)N[C@@H](CO)C(=O)NCC(=O)N[C@@H](C)C(=O)N1CCC[C@H]1C(=O)N1CCC[C@H]1C(=O)N1CCC[C@H]1C(=O)N[C@@H](CO)C(N)=O)[C@@H](C)CC)C(=O)O [SEQ ID NO: 60, Y-Aib-Q-G-T-F-T-S-D-L-S-K-Q-K(yE-x70)-DEEAARLFIEWLKAGGPSSGAPPPS-NH2] (H-Y[Aib]QGTFTSDLSKQK([γGlu-Stearoyl])DEEAARLFIEWLKAGGPSSGAPPPS-NH2) | 9.1 | 16.8 | 5.3
